Results taken from the supplement of paper PMC10307832.

Tests used:
Assay in all cases: relative viability (nuclei count vs DMSO), 5 days (fraction); higher = more cells survive
[1] = test system: NCI-H1355
How it was run: (§1)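 Lung cancer cell lines, seeded in 1536-well plates, were treated the following day by pin tool with a single drug or with five library-drug doses (not always all listed) in √10 steps on top of a fixed anchor-drug dose. Cells were fixed and nuclei stained in one step after 5 days, and nuclei were counted. Relative viability is the nuclei count for treated wells divided by that for vehicle wells, reported as medians of duplicate plates.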

[2] = test system: A-427
How it was run: as §1

[3] = test system: NCI-H2228
How it was run: as §1

[4] = test system: PC-3 [JPC-3]
How it was run: as §1

[5] = test system: LCLC-97TM1
How it was run: as §1

[6] = test system: LK-2
How it was run: as §1

[7] = test system: NCI-H1915
How it was run: as §1

[8] = test system: NCI-H838
How it was run: as §1

[9] = test system: NCI-H1666
How it was run: as §1

[10] = test system: PC-14
How it was run: as §1

[11] = test system: NCI-H2087
How it was run: as §1

[12] = test system: NCI-H358
How it was run: as §1

[13] = test system: NCI-H1792
How it was run: as §1

[14] = test system: ABC-1
How it was run: as §1

[15] = test system: UMC-11
How it was run: as §1

[16] = test system: NCI-H661
How it was run: as §1

[17] = test system: NCI-H322M
How it was run: as §1

[18] = test system: CAL-12T
How it was run: as §1

[19] = test system: SK-MES-1
How it was run: as §1

[20] = test system: NCI-H1651
How it was run: as §1

[21] = test system: NCI-H1395
How it was run: as §1

[22] = test system: NCI-H2085
How it was run: as §1

[23] = test system: H3255
How it was run: as §1

## O=C(O)CCCCC(CCSCc1ccccc1)SCc1ccccc1 (stereo not given) [CPI-613] + C[C@]1(O)C[C@@H](c2nc(-c3ccc4ccc(-c5ccccc5)nc4c3)c3c(N)nccn32)C1 [Linsitinib] (partner 1 µM)
[1]; first compound 5 µM
  relative viability: 0.78
[1]; first compound 15.81 µM
  relative viability: 0.825
[1]; first compound 50 µM
  relative viability: 0.856
[1]; first compound 158.11 µM
  relative viability: 0.477
[1]; first compound 500 µM
  relative viability: 0.103
[2]; first compound 5 µM
  relative viability: 1.1
[2]; first compound 15.81 µM
  relative viability: 1.12
[2]; first compound 50 µM
  relative viability: 1.02
[2]; first compound 158.11 µM
  relative viability: 0.847
[2]; first compound 500 µM
  relative viability: 0.618
[3]; first compound 5 µM
  relative viability: 0.735
[3]; first compound 15.81 µM
  relative viability: 0.453
[3]; first compound 50 µM
  relative viability: 0.402
[3]; first compound 158.11 µM
  relative viability: 0.221
[3]; first compound 500 µM
  relative viability: 0.0094
[4]; first compound 5 µM
  relative viability: 0.953
[4]; first compound 15.81 µM
  relative viability: 0.854
[4]; first compound 50 µM
  relative viability: 0.883
[4]; first compound 158.11 µM
  relative viability: 0.588
[4]; first compound 500 µM
  relative viability: 0.64
[5]; first compound 5 µM
  relative viability: 0.186
[5]; first compound 15.81 µM
  relative viability: 0.167
[5]; first compound 50 µM
  relative viability: 0.199
[5]; first compound 158.11 µM
  relative viability: 0.16
[5]; first compound 500 µM
  relative viability: 0.0574
[6]; first compound 5 µM
  relative viability: 0.526
[6]; first compound 15.81 µM
  relative viability: 0.637
[6]; first compound 50 µM
  relative viability: 0.655
[6]; first compound 158.11 µM
  relative viability: 0.853
[6]; first compound 500 µM
  relative viability: 0.54
[7]; first compound 5 µM
  relative viability: 1.11
[7]; first compound 15.81 µM
  relative viability: 1.07
[7]; first compound 50 µM
  relative viability: 1.04
[7]; first compound 158.11 µM
  relative viability: 0.964
[7]; first compound 500 µM
  relative viability: 0.626
[8]; first compound 5 µM
  relative viability: 1.04
[8]; first compound 15.81 µM
  relative viability: 0.956
[8]; first compound 50 µM
  relative viability: 0.905
[8]; first compound 158.11 µM
  relative viability: 0.544
[8]; first compound 500 µM
  relative viability: 0.0935
[9]; first compound 5 µM
  relative viability: 0.783
[9]; first compound 15.81 µM
  relative viability: 0.907
[9]; first compound 50 µM
  relative viability: 0.789
[9]; first compound 158.11 µM
  relative viability: 0.172
[9]; first compound 500 µM
  relative viability: 0.167
[10]; first compound 5 µM
  relative viability: 0.941
[10]; first compound 15.81 µM
  relative viability: 0.874
[10]; first compound 50 µM
  relative viability: 0.928
[10]; first compound 158.11 µM
  relative viability: 0.857
[10]; first compound 500 µM
  relative viability: 1.02
[11]; first compound 5 µM
  relative viability: 1.01
[11]; first compound 15.81 µM
  relative viability: 0.758
[11]; first compound 50 µM
  relative viability: 0.868
[11]; first compound 158.11 µM
  relative viability: 0.178
[11]; first compound 500 µM
  relative viability: 0.0125
[12]; first compound 5 µM
  relative viability: 0.684
[12]; first compound 15.81 µM
  relative viability: 0.769
[12]; first compound 50 µM
  relative viability: 0.743
[12]; first compound 158.11 µM
  relative viability: 0.347
[12]; first compound 500 µM
  relative viability: 0.0758
[13]; first compound 5 µM
  relative viability: 0.514
[13]; first compound 15.81 µM
  relative viability: 0.49
[13]; first compound 50 µM
  relative viability: 0.56
[13]; first compound 158.11 µM
  relative viability: 0.411
[13]; first compound 500 µM
  relative viability: 0.512
[14]; first compound 5 µM
  relative viability: 0.744
[14]; first compound 15.81 µM
  relative viability: 1.02
[14]; first compound 50 µM
  relative viability: 0.815
[14]; first compound 158.11 µM
  relative viability: 0.254
[14]; first compound 500 µM
  relative viability: 0.169
[15]; first compound 5 µM
  relative viability: 0.881
[15]; first compound 15.81 µM
  relative viability: 1
[15]; first compound 50 µM
  relative viability: 0.992
[15]; first compound 158.11 µM
  relative viability: 0.282
[15]; first compound 500 µM
  relative viability: 0.0946
[16]; first compound 5 µM
  relative viability: 0.49
[16]; first compound 15.81 µM
  relative viability: 0.458
[16]; first compound 50 µM
  relative viability: 0.668
[16]; first compound 158.11 µM
  relative viability: 0.503
[16]; first compound 500 µM
  relative viability: 0.511
[17]; first compound 5 µM
  relative viability: 0.832
[17]; first compound 15.81 µM
  relative viability: 0.721
[17]; first compound 50 µM
  relative viability: 0.931
[17]; first compound 158.11 µM
  relative viability: 0.693
[17]; first compound 500 µM
  relative viability: 0.634
[18]; first compound 5 µM
  relative viability: 0.865
[18]; first compound 15.81 µM
  relative viability: 0.634
[18]; first compound 50 µM
  relative viability: 0.561
[18]; first compound 158.11 µM
  relative viability: 0.642
[18]; first compound 500 µM
  relative viability: 0.62
[19]; first compound 5 µM
  relative viability: 1.08
[19]; first compound 15.81 µM
  relative viability: 1.04
[19]; first compound 50 µM
  relative viability: 1.03
[19]; first compound 158.11 µM
  relative viability: 0.863
[19]; first compound 500 µM
  relative viability: 0.988
[20]; first compound 5 µM
  relative viability: 0.968
[20]; first compound 15.81 µM
  relative viability: 0.92
[20]; first compound 50 µM
  relative viability: 0.836
[20]; first compound 158.11 µM
  relative viability: 0.316
[20]; first compound 500 µM
  relative viability: 0.133
[21]; first compound 5 µM
  relative viability: 1.09
[21]; first compound 15.81 µM
  relative viability: 0.961
[21]; first compound 50 µM
  relative viability: 1.08
[21]; first compound 158.11 µM
  relative viability: 1.1
[21]; first compound 500 µM
  relative viability: 1.04
[22]; first compound 5 µM
  relative viability: 0.854
[22]; first compound 15.81 µM
  relative viability: 0.759
[22]; first compound 50 µM
  relative viability: 0.95
[22]; first compound 158.11 µM
  relative viability: 0.548
[22]; first compound 500 µM
  relative viability: 0.2
[23]; first compound 5 µM
  relative viability: 0.915
[23]; first compound 15.81 µM
  relative viability: 0.989
[23]; first compound 50 µM
  relative viability: 0.969
[23]; first compound 158.11 µM
  relative viability: 0.948
[23]; first compound 500 µM
  relative viability: 0.921
